Measurements from US20090209606A1 (priority 2004, published 2009).
Read-outs that look alike come from different tables or passages of the source. Residues, ends and D or L forms follow the SMILES beside them. *: point of attachment. Cbz = O=C(OCc1ccccc1)*; CH2F = FC*

Experiments:
[1] = test system: alkylguanyl transferase (AGT) in SU-DHL-1 cells
SU-DHL-1 cells [2] = test: Cell cycle analysis (propidium iodide, FACS); conditions: SU-DHL-1, eight hours, equitoxic concentrations (bendamustine 50 μM)
[3] = test system: MCF-7/ADR cells and p53 deficient RK0-E6 colon adenocarcinoma cells; format: cell-based
[4] = test system: Ape-1 base excision repair enzyme; format: cell-based
SU-DHL-1 cells [5] = format: cell-based
gamma-H2AX histone = test: H2AX foci formation (immunofluorescence); conditions: 50 μM
Description: Cell were grown on Lab-Tek chamber slides (Nalge Nunc Intl., Naperville, Ill.) in RPMI 1640 media supplemented with 10% FBS. […] The cells were incubated for 30 minutes at 37° C. and then washed two times with PBS. They were incubated for an additional 4 hours at 37° C. The cells were then washed twice with 1×PBS and incubated 10 minutes in −20° C. 100% methanol to fix the cells. They were then washed three times for five minutes each with 1×PBS. They were incubated at room temperature for 1 hour in blocking buffer (10% FBS in 1×PBS, 1% BSA). The slides were incubated at 4° C. with rocking overnight with the primary polyclonal anti-H2AX antibody (R & D Systems, Minneapolis, Minn.). The antibody was diluted in blocking buffer at a ratio of 1:10,000. Slides were washed three times with 1×PBS and incubated with Alexa Flour 488 goat anti-rabbit secondary antibody (1:4000) (Molecular Probes, Eugene, Oreg.) for 45 minutes at room temperature with gentle shaking. Slides were washed three times with 1×PBS and then the chambers removed and SlowFade Light Antifade with DAPI (Molecular Probes) was added to the cells and coverslips sealed on the slides. Analysis was performed using a motorized Zeiss AxioPlan 2e imaging microscope with DIC optics and fluorescence, a Zeiss AxioCam HRm camera and Zeiss Axiovision software Version 4.2.

SU-DHL-1 cells [6] = format: cell-based; remark: listed apart in the source
SU-DHL-1 cells [7] = format: cell-based; remark: listed apart in the source
[8] = test system: relapsed indolent or transformed rituximab-refractory B-cell NHL; test: Phase II multicenter trial; format: in vivo, human
Description: This study evaluated the efficacy and toxicity of bendamustine in patients with NHL who have relapsed or are refractory to previous chemotherapy regimens. Patients refractory to rituximab had disease progression within 6 months of treatment.
Methods: This Phase II multicenter trial enrolled patients with relapsed indolent or transformed rituximab-refractory B-cell NHL from 17 sites in the US and Canada. […] Median age of patients was 63 years (range: 38-84) and 88% had Stage III/IV disease. Patients received bendamustine 120 mg/m^2 IV over 30-60 minutes, days 1 and 2, every 21 days for up to 6 cycles. Response was measured using the International Working Group criteria.

SU-DHL-1 cells [9] = test: cells; format: cell-based; conditions: Homo sapiens
PARP in SU-DHL-1 cells = format: cell-based
[10] = test system: 60 human tumor cell lines
[11] = SU-DHL-1, 72 h, read-out: Ave IC50
[12] = SU-DHL-1, 72 h, read-out: Ave IC90

**Q.** How did the “effect of O6-benzylguanine on cytotoxic potency” value (“effect of O6-benzylguanine” for short) [1] turn out when `O=NN(CCCl)C(=O)NCCCl` [carmustine] was run?
**A.** significantly sensitizes

**Q.** For `Cl.Cn1c(CCCC(=O)O)nc2cc(N(CCCl)CCCl)ccc21` [Bendamustine, 4-{5-[bis(2-chloroethyl)amino]-1-methyl-2-benzimidazolyl} butyric acid hydrochloride], which S-phase distribution increase (SU-DHL-1 cells [2]) is on record?
**A.** over 40%

**Q.** And the “micronucleation (nuclear morphology, DAPI)” value ([3]; 50 μM, alone or with 20 μM zVAD-fmk, two or three days)?
**A.** increased incidence of micronucleation

**Q.** And the “change of IC50 with methoxyamine addition” value [4]?
**A.** reduced approximately four-fold

**Q.** What about the “Fen1 mRNA regulation” value (SU-DHL-1 cells [5]) of the same molecule?
**A.** upregulated

**Q.** What about the “PLK-1 and Aurora A kinase (AurkA) expression” value (SU-DHL-1 cells [5]) of the same molecule?
**A.** down-regulated

**Q.** And the “down-regulation of mRNA expression of PLK-1, Aurora Kinases A and B, cyclin B1” value (SU-DHL-1 cells [5])?
**A.** 60 to 80%

**Q.** What about the “induction of p21 and NOXA mRNA” value (SU-DHL-1 cells [5]) of the same molecule?
**A.** induced

**Q.** What about the “up-regulation of Exo1 expression” value (SU-DHL-1 cells [5]) of the same molecule?
**A.** 2.5 fold

**Q.** And the “time to detectable intranuclear H2AX foci” value (gamma-H2AX histone)?
**A.** ≤ 30 min

**Q.** And the PARP protein expression (SU-DHL-1 cells [6])?
**A.** dramatic reduction

**Q.** What about the “expression of total p53” value (SU-DHL-1 cells [6]) of the same molecule?
**A.** strong increase

**Q.** And the “protein expression of Bax” value (SU-DHL-1 cells [6])?
**A.** increase

**Q.** What about the “up-regulation of Ser-15-phosphorylated p53” value (SU-DHL-1 cells [6]) of the same molecule?
**A.** 8 fold

**Q.** And the “loss of viability after brief exposure and wash-out” value (SU-DHL-1 cells [7])?
**A.** extensive loss of viability

**Q.** And the objective response ([8]; 15 patients refractory to prior alkylator treatment)?
**A.** 67%

**Q.** What about the complete response ([8]; ITT population) of the same molecule?
**A.** 25%

**Q.** What about the disease progression ([8]; ITT population) of the same molecule?
**A.** 14%

**Q.** What about the partial response ([8]; ITT population) of the same molecule?
**A.** 49%

**Q.** And the stable disease ([8]; ITT population)?
**A.** 12%

**Q.** What about the “overall objective response rate (ORR)” value ([8]; ITT population, 120 mg/m^2 IV days 1 and 2 every 21 days) of the same molecule?
**A.** 74%

**Q.** What about the “median duration of response” value ([8]; all patients) of the same molecule?
**A.** 6.6 months

**Q.** And the “median duration of response” value ([8]; indolent patients)?
**A.** 9.3 months

**Q.** What about the toxicity ([8]; single agent, heavily pretreated patients) of the same molecule?
**A.** acceptable toxicity

**Q.** What about the “median duration of response” value ([8]; transformed patients) of the same molecule?
**A.** 2.4 months

**Q.** What about the “effect of O6-benzylguanine” value [1] of the same molecule?
**A.** not enhanced

**Q.** And the IC50 (SU-DHL-1 cells [9]; [11])?
**A.** 33.2 µM

**Q.** And the IC90 (SU-DHL-1 cells [9]; [12])?
**A.** 56.3 µM

**Q.** What about the IC50 (SU-DHL-1 cells [9]; SU-DHL-1, read-out: IC50 concentration) of the same molecule?
**A.** 25 µM

**Q.** And the PARP cleavage (PARP in SU-DHL-1 cells)?
**A.** Maximal PARP cleavage

**Q.** Which results are given for `N[C@@H](Cc1ccc(N(CCCl)CCCl)cc1)C(=O)O` [melphalan]?
**A.** loss of viability after brief exposure and wash-out (SU-DHL-1 cells [7]): minimal loss of viability; PARP cleavage (PARP in SU-DHL-1 cells): No PARP cleavage

**Q.** `CN(C)/N=N/c1[nH]cnc1C(N)=O` [DTIC, Dacarbazine, Dacarbazine] was tested. Which “Correlation (PCC) with bendamustine, LC50” value [10] did it give?
**A.** 0.792 (LC50)

**Q.** Which results are given for `O=C(O)CCCc1ccc(N(CCCl)CCCl)cc1` [Chlorambucil, chlorambucil]?
**A.** S-phase distribution increase (SU-DHL-1 cells [2]): approximately 20%; PLK-1 and Aurora A kinase (AurkA) expression (SU-DHL-1 cells [5]): No changes; down-regulation of mRNA expression of PLK-1, Aurora Kinases A and B, cyclin B1 (SU-DHL-1 cells [5]): minor effect; induction of p21 and NOXA mRNA (SU-DHL-1 cells [5]): much lower extent; up-regulation of Exo1 expression (SU-DHL-1 cells [5]): 1.8 fold; PARP protein expression (SU-DHL-1 cells [6]): no changes; expression of total p53 (SU-DHL-1 cells [6]): small increase; up-regulation of Ser-15-phosphorylated p53 (SU-DHL-1 cells [6]): no changes; loss of viability after brief exposure and wash-out (SU-DHL-1 cells [7]): minimal loss of viability; IC50 (SU-DHL-1 cells [9]; [11]): 3.4 µM; IC90 (SU-DHL-1 cells [9]; [12]): 6.2 µM; IC90 (SU-DHL-1 cells [9]; SU-DHL-1, read-out: IC90 concentration): 5 µM; IC50 (SU-DHL-1 cells [9]; SU-DHL-1, read-out: equitoxic (IC50) concentrations): 4 µM; PARP cleavage (PARP in SU-DHL-1 cells): No PARP cleavage

**Q.** With `COC(=O)C[C@H](NC(=O)[C@H](C)NC(=O)[C@@H](NC(=O)OCc1ccccc1)C(C)C)C(=O)CF` [zVAD-fmk] (Cbz-Val-Ala-Asp(OMe)-CH2F) as the molecule, how does the “bendamustine-induced increases in Annexin-V-positive cells” value [3] read?
**A.** able to inhibit

**Q.** How did the S-phase distribution increase (SU-DHL-1 cells [2]) turn out when `O=P1(N(CCCl)CCCl)NCCCO1` (centres unmarked) [cyclophosphamide] was run?
**A.** ~15%

**Q.** What about the “effect of O6-benzylguanine” value [1] of the same molecule?
**A.** Opposite results
